Measurements taken from US12109204B2, “Methods for treating muscular dystrophies” (The Regents of the University of California, priority 2018, dated 2024).

What was measured:
Format in all cases: cell-based, murine
[1] = tested on: hSSPN-EGFP myotubes (human sarcospan promoter reporter in C2C12); test: hSSPN-EGFP reporter myotube assay (high-content imaging)
Procedure: (§1) C2C12 immortalized murine myoblasts cultured in growth media consisting of DMEM (Gibco) with 20% Fetal Bovine Serum (Sigma-Aldrich) at 37° C. with 5% CO2 were transfected with the hSSPN-EGFP or hSSPN-Luciferase linearized plasmids using Lipofectamine 3000 Transfection Reagent (Thermo Fisher Scientific). Transfected cells were selected using 800 μg/ml of G418 (Sigma-Aldrich) for 4 weeks to generate stable cell lines expressing reporter protein under control of the human SSPN promoter.
hSSPN-EGFP myoblasts were seeded at 500 cells per well in 50 μl of growth media in 384-well black, clear bottom microplates (Greiner) using a Multidrop 384 (Thermo Fisher Scientific) and incubated for 3 days. Upon reaching confluency, the growth media was replaced with 50 μl of differentiation media consisting of DMEM with 2% horse serum (Sigma-Aldrich) using an EL406 combination washer dispenser (Biotek). At day 2 of differentiation, the media on the cells was aspirated, left with a residual volume of 10 μl, and replaced with 30 μl of fresh differentiation media. 0.5 μl of small molecule in DMSO or DMSO alone (for vehicle and positive control wells) was added to each well using a Biomek Fx (Beckman). To ensure proper mixing of the DMSO, 50 μl of additional differentiation media was added to all wells except the positive control treated wells, which instead received 50 μl of media containing insulin transferrin selenium (ITS, Gibco) to reach a final concentration of 1% ITS. The final concentration of drug in each treated well was 5.5 μM in 0.55% DMSO and 0.55% DMSO for vehicle and positive control treated wells. After 48 hours of incubation, the media was replaced with Fluorobrite DMEM (Gibco) and each plate was imaged using ImageXpress Micro Confocal High Content Imaging System (Molecular Devices). The fluorescent intensity of imaged cells was determined using MetaXpress Analysis software (Molecular Devices). Analysis setting were as follows: top hat (size: 12, filter shape: circle), adaptive threshold (source: top hat, minimum width: 10, maximum width: 800, intensity above local background: 500), filter mask (filter type: minimum area filter, minimum value: 500). […]

[2] = tested on: hSSPN-Luciferase reporter cells (human sarcospan promoter reporter in C2C12); test: hSSPN-Luciferase reporter assay (Bright-Glo); conditions: doses between 3.9 nm to 1 μM, 48 hours (FIG. 10b)
Procedure: as §1
hSSPN-Luciferase myoblasts were cultured as described above. After 48 hours of treatment, plates were allowed to equilibrate to room temperature before the media was aspirated using an EL406 combination washer dispenser at room temperature. Bright-Glo luciferase assay system reagent (Promega) and differentiation media were added to cells at a 1:2 dilution using a Multidrop 384. After a 3-minute incubation at room temperature, luminescence signal was quantified using an Envision plate reader (PerkinElmer). The relative luminescence units were analyzed to determine fold change of treated over vehicle treated cells.
Cells were treated for 48 hours beginning at day 2 of differentiation with DMSO (vehicle control, ATCC), felodipine (Sigma), nilvadipine (Sigma), alloxazine (Sigma), GW5074 (Sigma), methylthioadenosine (Santa Cruz Biotechnology), or ezutromid (Cayman Chemicals) diluted in cell type specific differentiation media at doses listed in the figures. For gene expression studies, each treatment was performed in duplicate. For protein studies, each treatment was performed with single or double replicates.

SSPN, sarcospan [3] = test: SSPN gene expression by qPCR in C2C12 wild-type myotubes; conditions: 1-10 μM, 48 hours, normalized to β-actin (FIG. 10c)
Procedure: (§2) RNA from myotubes treated for 48 hours was extracted from cells using Trizol-based (Thermo Fisher Scientific) phase separation. RNA concentrations were determined using a NanoDrop 1000 (Thermo Fisher Scientific) and 750 ng of RNA in a 20 μl reaction was reverse transcribed using iScript cDNA synthesis (Bio-Rad) with the following cycling conditions: 25° C. for 5 minutes, 42° C. for 30 minutes, 85° C. for 5 minutes. For quantitative PCR, SsoFast EvaGreen Supermix (Bio-Rad), 400 nM of each optimized forward and reverse primer (for primer descriptions see Table 1), and cDNA corresponding to 37.5 ng RNA were used to amplify cDNA measured by Applied Biosystems 7300 (Thermo Fisher Scientific) with the following reaction conditions: 55° C. for 2 minutes, 95° C. for 2 minutes, 40 cycles of 95° C. for 10 seconds and 62° C. for 30 seconds, and dissociation stage. Each sample was run in triplicate. Data was analyzed using the ddCT method and normalized to reference gene, GAPDH or β-actin, with vehicle-treated samples serving as the calibrator (relative expression of vehicle control=1). C2C12 cells (American Type Culture Collection) were grown at 37° C. with 5% CO2 in growth media containing DMEM (Gibco) with 20% FBS (Sigma-Aldrich). Upon reaching confluency, the media was replaced with differentiation media containing DMEM with 2% horse serum (Sigma-Aldrich). Conditionally immortalized H2K mdx myoblast cells with a nonsense mutation in exon 23 of dystrophin were a gift from Terrance Partridge, Ph.D. (Children's National Medical Center, Washington, D.C.). Cells were allowed to proliferate on 0.01% gelatin (Sigma-Aldrich) coated plates at 33° C. with 5% CO2 with growth media containing DMEM, 20% HI-FBS (Invitrogen), 2% L-glutamine (Sigma-Aldrich), 2% chicken embryo extract (Accurate Chemical), 1% penicillin-streptomycin (Sigma-Aldrich), and 20U/ml of fresh interferon gamma (Gibco). For differentiation, H2K mdx myoblasts were seeded on plates coated with 0.1 mg/ml matrigel (Corning) diluted in DMEM and grown in proliferation conditions. […]

SSPN, sarcospan [4] = test: SSPN gene expression by qPCR in mdx myotubes; conditions: for SSPN gene expression over vehicle: 1-10 μM, 48 hours, normalized to β-actin (FIG. 10d)
Procedure: as §2

C2C12 wild-type myotubes = test: Fusion index and myotube morphology in wild-type myotubes
[5] = tested on: hSSPN-EGFP myotubes (human sarcospan promoter reporter in C2C12); test: hSSPN-EGFP reporter myotube assay (high-content imaging); conditions: doses between 3.9 nm to 1 μM, 48 hours (FIG. 10a)

Structure (SMILES): CCOC(=O)C1=C(C)NC(C)=C(C(=O)OC)C1c1cccc(Cl)c1Cl (stereo not drawn) [Felodipine, 5-O-ethyl 3-O-methyl 4-(2,3-dichlorophenyl)-2,6-dimethyl-1,4-dihydropyridine-3,5-dicarboxylate]
- fluorescence intensity over vehicle, primary screen hit call ([1]; primary screen of 3,200 molecules, 5.5 μM, 48 hours, n=1, hit cutoff 1.4-fold): hits
- hSSPN-EGFP RFU, Plate 1 ([1]; retest of screen hits at 5.5 μM, Plate 1, n=24 per plate): 1.4 RFU
- hSSPN-EGFP RFU, Plate 2 ([1]; retest of screen hits at 5.5 μM, Plate 2, n=24 per plate): 1.4 RFU
- hSSPN-Luciferase reporter activity, counterscreen [2]: increased activity
- SSPN gene expression over vehicle (SSPN, sarcospan [3]): increases sarcospan gene expression
- SSPN gene expression over vehicle (SSPN, sarcospan [3]; listed as felodipine): increased over vehicle
- SSPN gene expression over vehicle (SSPN, sarcospan [4]): increases sarcospan gene expression
- SSPN gene expression over vehicle (SSPN, sarcospan [4]; listed as felodipine): increase in SSPN gene expression
- SSPN gene expression relative to vehicle (SSPN, sarcospan [4]; 48h, normalized to GAPDH, n=2 (FIG. 11d)): only increased sarcospan levels
- fusion index (nuclei in myosin heavy chain positive area/total nuclei in field) (C2C12 wild-type myotubes; wild-type myotubes (FIG. 12c-d)): does not increase fusion index
- formation of hypertrophic myotubes (C2C12 wild-type myotubes; wild-type myotubes (FIG. 12e-f)): does induce the formation of hypertrophic wild-type myotubes
- hSSPN-EGFP reporter activity, counterscreen [5]: increased activity
